According to US11642332B2, “(2R,4R)-5-(5′-chloro-2′-fluorobiphenyl-4-yl)-2-hydroxy-4-[(5-methyloxazole-2-carbonyl)amino]pentanoic acid” (THERAVANCE BIOPHARMA R&D IP, LLC, priority 2015, dated 2023):

Key:
[1] = target: T1, human neprilysin (EC 3.4.24.11; NEP) (Homo sapiens, UniProt P08473); assay: In vitro assay for the quantitation of inhibitor potency at human NEP; type: biochemical; conditions: recombinant human NEP, fluorogenic peptide substrate 10 μM, 37° C.; read-out: pKi at human NEP (converted)
T1 construct: purchased R&D Systems 1182-ZN
T1 sequence (P08473 52-750 limits assumed): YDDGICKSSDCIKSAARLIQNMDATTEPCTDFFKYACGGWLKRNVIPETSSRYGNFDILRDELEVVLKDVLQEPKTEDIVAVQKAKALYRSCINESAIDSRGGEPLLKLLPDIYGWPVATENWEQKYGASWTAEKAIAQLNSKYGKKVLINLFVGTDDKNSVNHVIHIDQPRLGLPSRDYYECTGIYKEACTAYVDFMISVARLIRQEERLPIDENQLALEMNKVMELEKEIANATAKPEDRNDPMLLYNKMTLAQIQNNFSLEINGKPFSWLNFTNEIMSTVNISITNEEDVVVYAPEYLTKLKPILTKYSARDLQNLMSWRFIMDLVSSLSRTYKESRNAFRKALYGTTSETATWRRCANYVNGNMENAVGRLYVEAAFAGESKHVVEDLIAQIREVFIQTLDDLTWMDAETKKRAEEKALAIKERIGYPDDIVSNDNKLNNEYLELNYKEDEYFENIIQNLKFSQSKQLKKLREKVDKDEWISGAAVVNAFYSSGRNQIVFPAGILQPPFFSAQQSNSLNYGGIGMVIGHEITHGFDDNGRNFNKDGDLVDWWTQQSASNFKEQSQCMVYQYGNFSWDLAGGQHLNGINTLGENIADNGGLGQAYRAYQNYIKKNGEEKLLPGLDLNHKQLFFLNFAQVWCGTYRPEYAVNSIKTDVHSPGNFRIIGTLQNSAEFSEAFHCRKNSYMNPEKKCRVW
Procedure: The inhibitory activity at human neprilysin (EC 3.4.24.11; NEP) was determined as follows.
Recombinant human NEP was obtained commercially (R&D Systems, Minneapolis, Minn., catalog number 1182-ZN). The fluorogenic peptide substrate Mca-D-Arg-Arg-Leu-Dap-(Dnp)-OH (Medeiros et al. (1997) Braz. J. Med. Biol. Res. 30:1157-62; Anaspec, San Jose, Calif.) was used.
The assay was performed in 384-well white opaque plates at 37° C. using the fluorogenic peptide substrate at a concentration of 10 μM in Assay Buffer (50 mM HEPES, pH 7.5, 100 mM NaCl, 0.01% polyethylene glycol sorbitan monolaurate (Tween-20), 10 μM ZnSO4).
Test compounds were assayed over the range of concentrations from 10 μM to 20 pM. Test compounds were added to the enzyme and incubated for 30 minute at 37° C. prior to initiating the reaction by the addition of substrate. Reactions were terminated after 20 minutes of incubation at 37° C. by the addition of glacial acetic acid to a final concentration of 3.6% (v/v).
Plates were read on a fluorometer with excitation and emission wavelengths set to […]. Inhibition constants were obtained by nonlinear regression of the data using the equation (GraphPad Software, Inc., San Diego, Calif.): v=v0/[1+(I/K′)] where v is the reaction rate, v0 is the uninhibited reaction rate, I is the inhibitor concentration and K′ is the apparent inhibition constant.
The compounds were tested in this assay and found to have pKi values at human NEP as follows.

[2] = IV/PO pharmacokinetic study in rats; type: in vivo, male Sprague-Dawley rats; parameters: AUC(0-t): concentration or dose not given beside the values; conditions: rat; for AUC(0-t) / bioavailability: male, Sprague-Dawley, plasma; for AUC(0-t): read-out: AUClast Mean; for bioavailability: PO vs IV AUClast; for CLlast Mean: dose divided by AUClast
Procedure: (§1) Each rat or dog PK study began with formulation of the test compound. Appropriate masses of each test compound were added into a volume of vehicle (e.g. 5% sodium bicarbonate, 5% dextrose in H2O) such that the final concentration of each compound was appropriate to be dosed at 2 mL/kg. Although a homogenous suspension were acceptable for oral dosing, intravenous dosing solutions were sterile-filtered (0.2 μm) prior to dosing to ensure no particulates were administered.
In the rat study, pre-cannulated male Sprague-Dawley rats (3 per route) between 8 and 10 weeks of age were obtained from Harlan Laboratories (Indianapolis, Ind.). Rats received either a single oral gavage or a single intravenous (via lateral tail vein) dose of the dosing solution. The final dose was typically 0.5-3 mg/kg. Serial blood samples were harvested via the cannula implanted in the jugular vein at 3 minutes, 15 minutes, 30 minutes, 1 hour, 2 hours, 4 hours, 6 hours, and 24 hours post-dose. Sampling was performed either manually or using automated blood samplers. Samples were collected into microtainer tubes containing EDTA as the anticoagulant and were processed to plasma by refrigerated centrifugation.
(§2) Plasma samples were extracted with 3 volumes of MeCN containing a suitable internal standard. Extracts were reconstituted into 3 volumes of water containing 1% formic acid, and analyzed via HPLC-coupled MS/MS. Plasma concentration-time data were analyzed using the Phoenix software (Pharsight Corp., St. Louis, Mo.) to calculate pharmacokinetic parameters.
(§3) Plasma clearance was determined from the intravenous arm of the study, and represents the rate at which plasma is cleared of drug. It is equal to the dose divided by the area under the plasma concentration-time curve. In addition to plasma clearance, it is also essential for an orally administered drug to reach efficacious systemic levels following oral delivery. Oral bioavailability is a measurement of plasma exposures following oral administration relative to exposures following intravenous administration.

[3] = IV/PO pharmacokinetic study in dogs; type: in vivo, male beagle dogs; parameters: AUC(0-t): concentration or dose not given beside the values; conditions: dog; for AUC(0-t) / bioavailability: male, beagle, plasma; for AUC(0-t): read-out: AUClast Mean; for bioavailability: PO vs IV AUClast
Procedure: as §1
In the dog study, male beagle dogs (3 per route) housed at Agilux Laboratories (Worcester, Mass.) and weighing between 7-12 kg received either a single oral gavage or a single intravenous (via indwelling catheter) dose of the dosing solution. The final dose was typically 0.1-2 mg/kg. Serial blood samples were harvested via direct venipuncture at 3 minutes, 15 minutes, 30 minutes, 1 hour, 2 hours, 4 hours, 6 hours, 8 hours, 12 hours, and 24 hours post-dose. All samples were collected manually into microtainer tubes containing EDTA as the anticoagulant and were processed to plasma by refrigerated centrifugation.
as §2, §3

NEP = target: T2, NEP (Rattus norvegicus, UniProt P07861); assay: PK-PD assay for NEP activity in conscious normotensive Sprague-Dawley rats (plasma cGMP after ANP bolus); type: in vivo, male Sprague-Dawley rats; conditions: rat plasma, 3 mg/kg oral, 15 min after IV ANP bolus (30 μg/kg); average of three determinations
T2 construct: Pre-cannulated male Sprague-Dawley rats (3 per compound evaluated) between 8 and 10 weeks of age were obtained from Harlan Laboratories; from tissue; host or cells: whole animal: conscious male Sprague-Dawley rats (Harlan Laboratories)
T2 sequence (P07861 1-750): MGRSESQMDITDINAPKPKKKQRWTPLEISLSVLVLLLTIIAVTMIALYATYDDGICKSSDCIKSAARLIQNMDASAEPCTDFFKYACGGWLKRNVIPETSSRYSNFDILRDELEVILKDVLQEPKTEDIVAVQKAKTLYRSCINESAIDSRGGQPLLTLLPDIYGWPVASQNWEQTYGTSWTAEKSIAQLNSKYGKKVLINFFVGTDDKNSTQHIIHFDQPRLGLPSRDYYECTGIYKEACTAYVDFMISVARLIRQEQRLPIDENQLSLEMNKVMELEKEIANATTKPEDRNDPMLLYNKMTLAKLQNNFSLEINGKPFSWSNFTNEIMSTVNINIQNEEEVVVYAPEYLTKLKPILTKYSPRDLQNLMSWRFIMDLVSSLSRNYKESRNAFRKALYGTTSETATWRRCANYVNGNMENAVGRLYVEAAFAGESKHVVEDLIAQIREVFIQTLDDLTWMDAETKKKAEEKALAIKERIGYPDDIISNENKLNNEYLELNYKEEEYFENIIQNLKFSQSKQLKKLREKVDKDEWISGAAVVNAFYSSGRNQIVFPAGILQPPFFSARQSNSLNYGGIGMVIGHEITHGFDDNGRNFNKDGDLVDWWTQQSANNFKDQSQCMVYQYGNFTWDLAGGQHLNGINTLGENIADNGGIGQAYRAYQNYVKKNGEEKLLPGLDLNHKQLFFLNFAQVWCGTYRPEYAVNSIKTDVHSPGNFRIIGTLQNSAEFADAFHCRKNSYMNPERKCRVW
Procedure: Appropriate masses of each test compound were added into a volume of vehicle (e.g. 5% sodium bicarbonate, 5% dextrose in H2O) such that the final concentration of each compound was appropriate to be dosed at 2 mL/kg. Note that a homogenous suspension was deemed to be acceptable for oral dosing.
Pre-cannulated male Sprague-Dawley rats (3 per compound evaluated) between 8 and 10 weeks of age were obtained from Harlan Laboratories (Indianapolis, Ind.). Rats received a single oral gavage of the dosing solution. The final dose was typically in the range of 3-30 mg/kg. Serial blood samples were harvested via the cannula implanted in the jugular vein at 3 minutes, 15 minutes, 35 minutes, 45 minutes, 1 hour, 2 hours, 4 hours, 6 hours, and 24 hours post-dose. Samples were collected into microtainer tubes containing EDTA as the anticoagulant and were processed to plasma by refrigerated centrifugation. Fifteen minutes prior to the 45 minute, 2 hour, 4 hour, 6 hour, and 24 hour samples, an IV bolus (30 μg/kg) of Atrial Natriuretic Peptide (ANP) was administered. […] Since binding of ANP to its receptor leads to activation of guanylyl cyclase and subsequent production of cyclic guanosine monophosphate (cGMP), the observation of elevated levels of cGMP (>20 nM) in plasma 15 minutes after the IV administration of the ANP bolus was interpreted as evidence of ongoing neprilysin inhibition. Elevated levels plasma cGMP levels 24 hours after dosing is an indicator of the duration pharmacologic effect, analogous to plasma clearance values as indicators of pharmacokinetic persistence.
Plasma samples were extracted with 3 volumes of MeCN containing a suitable internal standard. Extracts were reconstituted into 3 volumes of water containing 1% formic acid. Plasma cGMP and test compound concentrations were quantified in plasma samples by HPLC-coupled mass spectrometric detection.

[4] = Dynamic moisture sorption (DMS) assessment; type: physicochemical
Procedure: DMS measurements were performed using a VTI atmospheric microbalance, SGA-100 system (VTI Corp., Hialeah, Fla. 33016). A weighed sample was used and the humidity was lowest possible value (close to 0% relative humidity) at the start of the analysis. The DMS analysis consisted of a scan rate of 5% relative humidity/step over the full humidity range of 5-90%. The DMS run was performed isothermally at 25° C.

SMILES	Ki [1]	AUC(0-t) ([2]; IV)	bioavailability [2]	AUC(0-t) ([2]; PO)	CLlast Mean ([2]; IV)	CLlast Mean ([3]; IV)	AUC(0-t) ([3]; IV)	bioavailability [3]	AUC(0-t) ([3]; PO)	cGMP Concentration 24 hours After Dosing Mean (NEP)	total moisture gain ([4]; 5-70% relative humidity, 25° C.)	total moisture gain ([4]; 5-90% relative humidity, 25° C.)	hygroscopicity (DMS isotherm) ([4]; 25° C.)	solid form (PXRD) after sorption-desorption cycles ([4]; after two sorption-desorption cycles)
C[C@H](C[C@@H](Cc1ccc(-c2cc(Cl)ccc2F)cc1)NC(=O)c1cnco1)C(=O)O [Comparison Compound C4, (2R,4S)-5-(5′-Chloro-2′-fluorobiphenyl-4-yl)-2-methyl-4-[(oxazole-5-carbonyl)amino]pentanoic Acid]	0.501 nM	830 ng·h/mL	60%	500 ng·h/mL	11.2 mL/min/kg	25.7 mL/min/kg	70 ng·h/mL	42%	30 ng·h/mL	53 nM				
COc1cc(C(=O)N[C@H](Cc2ccc(-c3cc(Cl)ccc3F)cc2)C[C@@H](O)C(=O)O)on1 [Comparison Compound C2, (2R,4R)-5-(5′-Chloro-2′-fluorobiphenyl-4-yl)-2-hydroxy-4-[(3-methoxyisoxazole-5-carbonyl)amino]pentanoic Acid]	0.126 nM	480 ng·h/mL	20%	110 ng·h/mL	28.3 mL/min/kg	10.8 mL/min/kg	160 ng·h/mL	99%	160 ng·h/mL	45 nM				
Cc1cnc(C(=O)N[C@H](Cc2ccc(-c3cc(Cl)ccc3F)cc2)C[C@@H](O)C(=O)O)o1 [Compound 1′, (2R,4R)-5-(5′-Chloro-2′-fluorobiphenyl-4-yl)-2-hydroxy-4-[(5-methyloxazole-2-carbonyl)amino]pentanoic Acid]											less than 0.025 % by weight	less than 0.235 % by weight	non-hygroscopic solid	no change in form
CCc1ncc(C(=O)N[C@H](Cc2ccc(-c3cc(Cl)ccc3F)cc2)C[C@@H](C)C(=O)O)o1 [Comparison Compound C3, (2R,4S)-5-(5′-Chloro-2′-fluorobiphenyl-4-yl)-4-[(2-ethyloxazole-5-carbonyl)amino]-2-methylpentanoic Acid]	0.794 nM	1500 ng·h/mL	60%	880 ng·h/mL	10 mL/min/kg	9.83 mL/min/kg	170 ng·h/mL	64%	130 ng·h/mL	47 nM				
